From patent US20250122173A1, “MODULATORS OF RHO-ASSOCIATED PROTEIN KINASE” (Redx Pharma Limited, priority 2022, published 2025)

Columns and labels:
ROCK1 = ROCK1 (Homo sapiens, UniProt Q13464); assay: ROCK1 inhibition assay (ROCK1 binding activity, as determined by the assay described for ROCK2); type: biochemical; conditions: read-out: ROCK 1 (IC50 category)
Procedure: Assay for ROCK2 inhibition was performed using the protein construct N-terminal 6His-tagged ROCK2 catalytic domain 11-552 (Dundee University, UK). Protein was purified from a baculovirus expression system. Long S6 peptide ([…]) was used as substrate. Kinase reactions were carried out in 15 μl volume in a 96-well plate (black, half area) using 1.25 nM constitutively active ROCK2 kinase, 100 μM long S6 peptide, 20 μM ATP and test compound in DMSO (or DMSO only for controls). The final concentration of DMSO was 1%. Assay buffer was 50 mM HEPES pH 7.5 supplemented with 0.2 mM EDTA, 10 mM magnesium acetate, 0.01% Tween-20, 1 mM DTT and 0.01% BSA. Test compounds were pre-incubated with ROCK2 kinase for 1 hour before addition of ATP and long S6 peptide. After incubation for a further 1 hour, the amount of ADP produced was measured using ADP-Glo Kinase Assay (Promega) as per manufacturer's instructions. The luminescence was measured on a PHERAstar FS (BMG Labtech). The concentration of test compound required to inhibit ADP production by 50% (the IC50) was calculated using a four-parameter logistic function with software by Dotmatics. […] The category “+” refers to compounds with a ROCK2 or ROCK1 IC50 value of >10 μM. The category “++” refers to compounds with a ROCK2 or ROCK1 IC50 value of 10 to 3 μM. The category “+++” refers to compounds with a ROCK1 or ROCK2 IC50 value of 3 to 0.3 μM. The category “++++” refers to compounds with a ROCK1 or ROCK2 IC50 value of <0.3 μM.

ROCK2 = biological target: T1, ROCK2 (Homo sapiens, UniProt O75116); assay: ROCK2 inhibition assay (ADP-Glo kinase assay, called ROCK2 binding activity); type: biochemical; conditions: 20 μM ATP, 1 hour pre-incubation, read-out: ROCK 2 (IC50 category)
T1 construct: N-terminal 6His-tagged ROCK2 catalytic domain 11-552; 6His (N); purchased Dundee University, UK; host or cells: baculovirus expression system
Procedure: ROCK2 Binding Activity: Assay for ROCK2 inhibition was performed using the protein construct N-terminal 6His-tagged ROCK2 catalytic domain 11-552 (Dundee University, UK). Protein was purified from a baculovirus expression system. Long S6 peptide ([…]) was used as substrate. Kinase reactions were carried out in 15 μl volume in a 96-well plate (black, half area) using 1.25 nM constitutively active ROCK2 kinase, 100 μM long S6 peptide, 20 μM ATP and test compound in DMSO (or DMSO only for controls). The final concentration of DMSO was 1%. Assay buffer was 50 mM HEPES pH 7.5 supplemented with 0.2 mM EDTA, 10 mM magnesium acetate, 0.01% Tween-20, 1 mM DTT and 0.01% BSA. Test compounds were pre-incubated with ROCK2 kinase for 1 hour before addition of ATP and long S6 peptide. After incubation for a further 1 hour, the amount of ADP produced was measured using ADP-Glo Kinase Assay (Promega) as per manufacturer's instructions. The luminescence was measured on a PHERAstar FS (BMG Labtech). The concentration of test compound required to inhibit ADP production by 50% (the IC50) was calculated using a four-parameter logistic function with software by Dotmatics. […] The category “+” refers to compounds with a ROCK2 or ROCK1 IC50 value of >10 μM. The category “++” refers to compounds with a ROCK2 or ROCK1 IC50 value of 10 to 3 μM. The category “+++” refers to compounds with a ROCK1 or ROCK2 IC50 value of 3 to 0.3 μM. The category “++++” refers to compounds with a ROCK1 or ROCK2 IC50 value of <0.3 μM.

T1 sequence (O75116 11-552): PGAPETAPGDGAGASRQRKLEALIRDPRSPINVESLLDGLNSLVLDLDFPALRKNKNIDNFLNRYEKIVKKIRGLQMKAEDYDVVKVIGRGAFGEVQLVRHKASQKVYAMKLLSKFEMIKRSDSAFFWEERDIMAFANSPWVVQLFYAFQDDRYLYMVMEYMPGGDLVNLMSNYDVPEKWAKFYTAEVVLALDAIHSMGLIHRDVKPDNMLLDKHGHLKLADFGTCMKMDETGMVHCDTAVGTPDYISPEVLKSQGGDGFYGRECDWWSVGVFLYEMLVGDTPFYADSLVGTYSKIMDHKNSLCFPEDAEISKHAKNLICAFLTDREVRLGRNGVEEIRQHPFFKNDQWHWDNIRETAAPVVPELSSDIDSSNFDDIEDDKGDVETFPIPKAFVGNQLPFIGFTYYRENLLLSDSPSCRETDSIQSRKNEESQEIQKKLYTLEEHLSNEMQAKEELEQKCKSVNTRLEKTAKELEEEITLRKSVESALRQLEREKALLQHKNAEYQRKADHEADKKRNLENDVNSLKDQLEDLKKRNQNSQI
Sequence of ROCK1 (Q13464 whole entry, the tested form may be a part): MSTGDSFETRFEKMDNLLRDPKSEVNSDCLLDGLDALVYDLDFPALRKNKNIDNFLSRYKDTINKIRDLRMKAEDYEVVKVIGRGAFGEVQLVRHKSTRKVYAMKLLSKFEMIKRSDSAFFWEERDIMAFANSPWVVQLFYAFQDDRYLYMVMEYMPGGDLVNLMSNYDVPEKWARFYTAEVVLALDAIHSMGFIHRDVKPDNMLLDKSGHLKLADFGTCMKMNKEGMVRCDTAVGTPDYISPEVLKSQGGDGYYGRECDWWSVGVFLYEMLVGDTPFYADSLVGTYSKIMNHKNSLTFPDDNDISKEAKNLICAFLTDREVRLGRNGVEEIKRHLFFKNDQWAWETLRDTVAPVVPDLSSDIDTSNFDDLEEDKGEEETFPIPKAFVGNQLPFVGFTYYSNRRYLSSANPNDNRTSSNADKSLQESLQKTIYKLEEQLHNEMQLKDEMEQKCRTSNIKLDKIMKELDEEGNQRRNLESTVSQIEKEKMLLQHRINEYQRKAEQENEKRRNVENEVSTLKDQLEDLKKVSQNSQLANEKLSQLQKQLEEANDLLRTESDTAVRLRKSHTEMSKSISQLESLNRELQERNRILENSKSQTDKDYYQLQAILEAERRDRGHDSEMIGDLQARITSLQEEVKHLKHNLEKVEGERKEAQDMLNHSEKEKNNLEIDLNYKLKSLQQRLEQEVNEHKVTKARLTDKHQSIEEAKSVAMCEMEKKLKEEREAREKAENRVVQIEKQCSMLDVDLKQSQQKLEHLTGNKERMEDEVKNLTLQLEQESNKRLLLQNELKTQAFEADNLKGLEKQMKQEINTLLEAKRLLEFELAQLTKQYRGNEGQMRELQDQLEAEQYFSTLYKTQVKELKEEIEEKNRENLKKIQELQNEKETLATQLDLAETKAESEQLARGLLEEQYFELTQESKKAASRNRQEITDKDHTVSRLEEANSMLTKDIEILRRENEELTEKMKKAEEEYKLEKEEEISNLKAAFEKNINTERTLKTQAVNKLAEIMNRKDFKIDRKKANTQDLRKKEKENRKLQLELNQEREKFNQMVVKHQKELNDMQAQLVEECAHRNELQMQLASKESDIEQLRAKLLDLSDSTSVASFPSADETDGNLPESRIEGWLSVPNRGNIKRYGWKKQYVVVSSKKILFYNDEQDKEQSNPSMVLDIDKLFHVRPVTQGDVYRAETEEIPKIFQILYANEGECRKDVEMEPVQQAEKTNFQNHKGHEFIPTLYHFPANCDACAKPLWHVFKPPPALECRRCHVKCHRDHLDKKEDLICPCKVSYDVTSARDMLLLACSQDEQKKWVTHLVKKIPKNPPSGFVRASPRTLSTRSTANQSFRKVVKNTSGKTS

| SMILES | IC50 (ROCK1) [µM] | IC50 (ROCK2) [µM] |
| --- | --- | --- |
| Cn1nc(-c2cccc(C(=O)NCC(F)(F)F)c2)nc1Nc1ccc2c(c1)CNC2=O [Example 9] | > 10 | 3 to 10 |
| Cc1cn(-c2ccc(-c3nc(Nc4ccc5c(c4)CNC5=O)n(C)n3)cc2)cn1 [Example 1] | > 10 | < 0.3 |
| CCn1nc(-c2ccc(-c3ccc(C)nc3)c(C)c2)nc1Nc1cc2c(cc1C)C(=O)NC2C (stereo not drawn) [Example 75] | 3 to 10 | < 0.3 |
| CCn1nc(-c2ccc(-c3ccc(C)nc3)cc2)nc1Nc1ccc2c(c1C)C(C)NC2=O (stereo not drawn) [Example 43] | > 10 | 3 to 10 |
| Cc1nc(C2CC2)cn1-c1ccc(-c2nc(Nc3ccc4c(c3)CNC4=O)n(C)n2)cc1 [Example 3] | > 10 | < 0.3 |
| CCn1nc(-c2ccc(-n3cnc(C4CC4)c3)cc2)nc1Nc1ccc2c(c1)C(C)(C)NC2=O [Example 19] | > 10 | < 0.3 |
| CCn1nc(-c2cnc(-c3ccc(C4CC4)cc3)c(C)c2)nc1Nc1cc2c(cc1C)C(=O)NC2C (stereo not drawn) [Example 105] | 3 to 10 | < 0.3 |
| CCn1nc(-c2ccc(-c3cn(C)c(C4CC4)n3)c(F)c2)nc1Nc1ccc2c(c1)C(C)NC2=O (stereo not drawn) [Example 108] | 3 to 10 | < 0.3 |
| CCn1nc(-c2ccc(-n3cc(C4CC4)nc3C)cc2)nc1Nc1ccc2c(c1)C(C)(C)NC2=O [Example 18] | > 10 | 3 to 10 |
| CCn1nc(-c2ccc(-c3cnc(C4CC4)n3C)cc2)nc1Nc1cc2c(cc1C)C(=O)NC2C (stereo not drawn) [Example 58] | 3 to 10 | < 0.3 |
| CCn1nc(-c2ccc(-c3ncc(C)cc3C)c(C)c2)nc1Nc1cc2c(cc1C)C(=O)NC2C (stereo not drawn) [Example 90] | > 10 | 3 to 10 |
| CCn1nc(-c2ccc(-n3cc(C4CC4)nc3C)cc2)nc1Nc1ccc2c(c1)C(C)NC2=O (stereo not drawn) [Example 22] | 3 to 10 | < 0.3 |
| Cc1cc(-c2nc(Nc3ccc4c(c3C)CNC4=O)n(C)n2)ccc1-n1cnc(C2CC2)c1 [Example 13] | > 10 | < 0.3 |
| Cn1nc(-c2ccc(C(=O)NCC(F)(F)F)cc2)nc1Nc1ccc2c(c1)CNC2=O [Example 6] | > 10 | < 0.3 |
| CCn1nc(-c2cc(C)c(-c3ccc(C)cn3)cc2C)nc1Nc1ccc2c(c1)C(C)NC2=O (stereo not drawn) [Example 133] | > 10 | < 0.3 |
| CCn1nc(-c2ccc(-c3ccc(C)nc3)cc2)nc1Nc1ccc2c(c1)CNC2=O [Example 15] | 3 to 10 | < 0.3 |
| CCn1nc(-c2ccc(-c3ccc(C)nc3)cc2)nc1Nc1cc2c(cc1C)C(=O)NC2 [Example 102] | 0.3 to 3 | < 0.3 |
| CCn1nc(-c2ccc(-c3ccc(C)cn3)cc2)nc1Nc1ccc2c(c1)CNC2=O [Example 27] | 3 to 10 | < 0.3 |
| CCn1nc(-c2ccc(-c3ccnc(C)c3)c(C)c2)nc1Nc1ccc2c(c1)CNC2=O [Example 26] | 3 to 10 | < 0.3 |
| CCn1nc(-c2ccc(-c3ccc(C)nc3)c(F)c2)nc1Nc1cc2c(cc1C)C(=O)NC2C (stereo not drawn) [Example 57] | > 10 | < 0.3 |
| CCn1nc(-c2ccc(-c3ccc(C4CC4)nc3)c(F)c2)nc1Nc1cc2c(cc1C)C(=O)NC2C (stereo not drawn) [Example 62] | > 10 | < 0.3 |
| CCn1nc(-c2ccc(C3CCC(C)NC3)c(C)c2)nc1Nc1cc2c(cc1C)C(=O)NC2C (stereo not drawn) [Example 145, 5-[[2-ethyl-5-[3-methyl-4-(6-methyl-3-piperidyl)phenyl]-1,2,4-triazol-3-yl]amino]-3,6-dimethyl-isoindolin-1-one] | > 10 | 3 to 10 |
| CCn1nc(-c2ccc(-c3ccc(C4CC4)cn3)c(C)c2)nc1Nc1cc2c(cc1C)C(=O)NC2C (stereo not drawn) [Example 103] | 3 to 10 | < 0.3 |

| SMILES | IC50 (ROCK1) [µM] | IC50 (ROCK2) [µM] |
| --- | --- | --- |
| CCn1nc(-c2ccc(-n3cnc(C4CC4)c3)cc2)nc1Nc1ccc2c(c1)C1(CC1)NC2=O [Example 23] | > 10 | < 0.3 |
| CCn1nc(-c2ccc(-c3nc(C)ccc3C)c(C)c2)nc1Nc1cc2c(cc1C)C(=O)NC2C (stereo not drawn) [Example 107] | > 10 | 3 to 10 |
| CCn1nc(-c2ccc(C3CCN(C(C)C(F)(F)F)CC3)cc2)nc1Nc1cc2c(cc1C)C(=O)NC2C (stereo not drawn) [Example 127] | 0.3 to 3 | 0.3 to 3 |
| CCn1nc(-c2ccc(-c3ccc(C)nc3)c(C(C)=O)c2)nc1Nc1cc2c(cc1C)C(=O)NC2C (stereo not drawn) [Example 125] | > 10 | < 0.3 |
| CCn1nc(-c2ccc(C3CCCN(CC(F)(F)F)C3)cc2)nc1Nc1cc2c(cc1F)C(=O)NC2C (stereo not drawn) [Example 143] | > 10 | 0.3 to 3 |
| CCn1nc(-c2cc(C)c(-c3ccc(C)cn3)cc2F)nc1Nc1cc2c(cc1C)C(=O)NC2C (stereo not drawn) [Example 120] | > 10 | < 0.3 |
| CCn1nc(-c2ccc(-c3ccc(C4CC4)nc3)cc2)nc1Nc1cc2c(cc1F)C(=O)N[C@H]2C [Example 161] | 3 to 10 | < 0.3 |
| CCn1nc(-c2ccc(-n3cnc(C4CC4)c3)cc2C)nc1Nc1cc2c(cc1C)C(=O)NC2C (stereo not drawn) [Example 126] | 3 to 10 | < 0.3 |
| CCn1nc(-c2ccc(-c3ccc(C4CC4)nc3)cc2)nc1Nc1ccc2c(c1)C(C)NC2=O (stereo not drawn) [Example 47] | 3 to 10 | < 0.3 |
| CCn1nc(-c2ccc(C3CCN(CC(F)(F)F)CC3)cc2)nc1Nc1cc2c(cc1F)C(=O)NC2C (stereo not drawn) [Example 146] | > 10 | 0.3 to 3 |
| CCn1nc(-c2ccc(-c3ccc(C4CC4)nc3)c(C)c2)nc1Nc1ccc2c(c1)CNC2=O [Example 40] | > 10 | < 0.3 |
| CCn1nc(-c2cc(C)c(-c3ccc(C)nc3)cc2C)nc1Nc1cc2c(cc1C)C(=O)NC2C (stereo not drawn) [Example 77] | 3 to 10 | < 0.3 |
| CCn1nc(-c2cc(C)c(-c3ccc(C4CC4)nc3)cc2F)nc1Nc1cc2c(cc1C)C(=O)NC2C (stereo not drawn) [Example 94] | 3 to 10 | < 0.3 |
| CCn1nc(-c2ccc(-c3ccc(C(C)(C)O)nc3)c(C)c2)nc1Nc1cc2c(cc1C)C(=O)NC2C (stereo not drawn) [Example 154] | 0.3 to 3 | < 0.3 |
| CCn1nc(-c2ccc(C3CCNCC3)c(C)c2)nc1Nc1cc2c(cc1C)C(=O)NC2C (stereo not drawn) [Example 141] | > 10 | 3 to 10 |
| CCn1nc(-c2ccc(-c3ccc(C4CC4)nc3)nc2)nc1Nc1ccc2c(c1)C(C)NC2=O (stereo not drawn) [Example 60] | > 10 | < 0.3 |
| CCn1nc(-c2ccc(-c3cnc(C4CC4)n3C)c(C)c2)nc1Nc1ccc2c(c1)C(C)NC2=O (stereo not drawn) [Example 65] | 3 to 10 | < 0.3 |
| Cn1nc(-c2ccc(-c3ccc(C(F)(F)F)nc3)cc2)nc1Nc1ccc2c(c1)CNC2=O [Example 10] | > 10 | < 0.3 |
| CCn1nc(-c2cc(C)c(-c3ccc(C4CC4)nc3)cc2C)nc1Nc1ccc2c(c1)C(C)NC2=O (stereo not drawn) [Example 111] | > 10 | < 0.3 |
| CCn1nc(-c2ccc(-c3ccc(C)nc3)c(C)c2)nc1Nc1ccc2c(c1)CNC2=O [Example 31] | 3 to 10 | < 0.3 |
| CCn1nc(-c2cc(C)c(-c3ccc(C4CC4)nc3)cc2C)nc1Nc1cc2c(cc1C)C(=O)NC2C (stereo not drawn) [Example 88] | > 10 | < 0.3 |
| CCn1nc(-c2ccc(-c3ccnc(C4CC4)c3)c(C)c2)nc1Nc1ccc2c(c1)CNC2=O [Example 32] | < 0.3 | < 0.3 |
